Source: US20250312378A1, “COMPOSITION COMPRISING ANTI-FOLIC ACID AGENT FOR DIFFERENTIATION OF MESENCHYMAL STEM CELL INTO CARTILAGE” (EWHA UNIVERSITY-INDUSTRY COLLABORATION FOUNDATION, priority 2021, published 2025)

Key:
COL II [1] = experiment: COL II mRNA expression by qPCR in TMSCs in PEG-PA 3D matrix; format: cell-based, Human; settings: 0.1 μM; for COL II expression level compared to control system (day not given): vs control system, time point not given; for COL II mRNA level compared to control system, day 14: day 14, vs control system containing no antifolate
From the text: (§1) Based on the screening results obtained in Example 3, dapsone (1), pralatrexate (4), and trimethoprim (7) were selected as antifolate candidates.
(§2) Human TMSCs used as stem cells were donated from Ewha Womans University Mokdong Hospital (Seoul, Korea). The cells were isolated from a donor after tonsillectomy in compliance with the ethical guidelines of the University. DMEM (Corning, USA) containing 10.0% (v/v) fetal bovine serum (FBS, Corning, USA), 1.0% (v/v) penicillin/streptomycin (PS, Corning, USA) and 1.0% (v/v) […] (AA, Corning, USA) was used as a growth medium, and the isolated human TMSCs were cultured using the growth medium in traditional polystyrene culture dishes at 37° C. under 5% CO2 atmosphere. Then, the stem cells (passage 7, 0.5×10^6 cells/well) were mixed with the aqueous PEG-PA solution (10.0 wt % in growth medium) containing an antifolate or KGN at 20° C. A system containing no antifolate or KGN was used as a control. The TMSC-suspended solution was injected into a 24-well culture plate (0.2 ml/well) at 37° C. to form a hydrogel matrix. The medium was replaced every 3 days during a 3D culture period of 21 days, and each experiment was performed in triplicate.
(§3) Chondrogenic differentiation of TMSCs was investigated at the mRNA and protein levels of chondrogenic biomarkers such as COL II, SOX 9, and ACAN. Gene expression levels were determined compared to that of a control system containing no antifolate using equal amounts of cDNA. COL I, an osteogenic biomarker, was also used to determine whether osteogenic differentiation occurred when an antifolate was used.
(§4) Specifically, after 0, 14, and 21 days of 3D culture, mRNA was extracted from the cells in the thermogel by using a TRIZOL™ reagent (Invitrogen, USA) according to the manufacturer's protocol, and the mRNA concentration was assayed by a Nano Drop 2000 spectrometer (Thermo Scientific, USA). Equal amounts of cDNA were used in qPCR to determine gene expression levels compared to that of the control system containing no antifolate. Then, total cDNA was synthesized using a ReverTra Ace® qPCR RT kit (Toyobo, Japan), and mRNA expression levels were measured using a CFX96™ real-time RT-PCR system (Bio-Rad, USA) and an iQ™ SYBR® Green Supermix solution (Bio-Rad, USA). The relative expression levels of target genes were calculated as 2^−ΔΔCt by the following calculation equation: ΔΔCt=(gene A−GAPDH)t−(gene A−GAPDH)0. Here, the subscript 0 refers to data on day 0 (3 hours). The primer sequences used for amplification are shown in Table 1 below, and each test value was determined as the mean value of triplicate determinations.

[2] = In vitro drug release from PEG-PA thermogel into PBS (HPLC); format: physicochemical; settings: from PEG-PA thermogel (10.0 wt %) into PBS, 37° C.
Experimental: The drug release profile of the thermogel was determined in vitro. […] The temperature of the polymer solution containing the drug was increased to 37° C. to cause a sol-gel transition. After 30 minutes, phosphate-buffered saline (PBS) (1.2 mL, 37° C.) was added thereto, and the mixture was placed in a shaking thermostatic bath with 40 strokes/min at 37° C. PBS was replaced at specific sampling intervals. The drug released into the medium, PBS, was analyzed by a high-performance liquid chromatography system (HPLC; Waters 1525B, USA) equipped with a photodiode detector (Waters 2998, USA) and a Jupiter@5 μm C18 300A LC column (Phenomenex, USA). As a mobile phase, a mixed solvent of methanol/water (40/60 v/v) containing trifluoroacetic acid (0.1%) was used for dapsone, pralatrexate and trimethoprim, and a mixed solvent of acetonitrile/water (35/65 v/v) containing formic acid (0.1%) was used for KGN. The flow rate was set at 1.0 ml/min. The amount of drug released was analyzed at 260 nm for dapsone, 307 nm for pralatrexate, 287 nm for trimethoprim, and 274 nm for KGN, and was determined as the mean value of triplicate determinations.

COL II [3] = experiment: Screening of COL II mRNA expression under 3D culture conditions (FIG. 4B); format: cell-based, Human; settings: 0.1 μM
Experimental: Various antifolates were screened to evaluate their effects on cell proliferation and viability and their chondrogenic potential. The antifolates used were dapsone (1), methotrexate (2), pemetrexed (3), pralatrexate (4), proguanil (5), pyrimethamine (6), and trimethoprim (7). Stem cells loaded in a PEG-PA thermogel scaffold containing each antifolate or KGN were cultured in a DMEM growth medium containing FBS (10.0% v/v) for 21 days. A control experiment was performed under the same conditions, except that no antifolate was added.
Expression of chondrogenic biomarkers was investigated in the presence of antifolates. The expression of COL II, the most widely used biomarker for chondrogenic differentiation of stem cells, was investigated at the mRNA level (FIG. 4B).

RUNX1 = RUNX1 immunofluorescence in TMSCs; format: cell-based, Human; settings: serum-free growth medium after overnight starvation
Experimental: For immunofluorescence assay, stem cells were starved overnight and then treated with each antifolate or KGN in serum-free growth medium. Each cell was treated with bovine serum albumin (1.0% w/v in PBS), and then treated with anti-CBFβ primary antibody (Abcam, USA) and anti-RUNX1 primary antibody (Santa Cruz Biotechnology, USA) and incubated. The cells were treated with anti-rabbit IgG H&L secondary antibodies (Abcam, USA) and anti-mouse IgG H&L secondary antibodies (Abcam, USA) against CBFβ and RUNX1, respectively. The cell nuclei were stained with DAPI (Molecular probes, USA), and each image was obtained using an Olympus IX71 fluorescence microscope and Olympus DP2-BSW software.

SOX 9 [4] = experiment: SOX 9 mRNA expression by qPCR in TMSCs in PEG-PA 3D matrix; format: cell-based, Human; settings: 0.1 μM
From the text: as §1, §2, §3
as §4, with “[…],” for “after 0, 14, and 21 days of 3D culture,”

COL II [5] = experiment: COL II protein expression by immunofluorescence assay; format: cell-based, Human; settings: 0.1 μM, 14 days 3D culture
Experimental: (§5) Protein expression for COL II, SOX 9, ACAN and COL I was investigated using immunofluorescence assay for stem cells cultured for 14 days. Specifically, TMSCs, which were 3D cultured with antifolates or KGN for 14 days and then encapsulated in thermogel scaffolds, were fixed with 4.0% paraformaldehyde (PFA) for 12 hours and quickly frozen at −70° C. Then, the thermogels were cryosectioned to a thickness of 10 μm using CM1850 (Leica, Germany). All the samples were treated with Triton (0.25% v/v in PBS), and then blocked with bovine serum albumin (1.0% w/v in PBS), and treated with anti-COL II, anti-SOX 9, anti-ACAN, and anti-COL I primary antibodies. Next, the samples were washed with PBS and treated with the following secondary antibodies: goat anti-mouse IgG H&L Alexa Fluor®594 for COL II and ACAN, and goat anti-rabbit IgG H&L Alexa Fluor®594 for SOX 9 and COL I. All the antibodies were purchased from Abcam (USA) and tested according to the manufacturer's protocol. In addition, each sample was stained for nuclei and F-actin with DAPI (Molecular probes, USA) and phalloidin (PHD) (Abcam, USA), respectively. Images were obtained using an Olympus IX71 fluorescence microscope and Olympus DP2-BSW software.
(§6) For immunofluorescence assay, the cell nucleus and actin were stained blue and green with DAPI and PHD, respectively, and the antibodies for each protein were stained red.

CBFβ = experiment: Nuclear translocation of CBFβ in TMSCs by Western blot; format: cell-based, Human; settings: serum-free growth medium after overnight starvation
From the text: Filamin A is an actin-binding protein that regulates the cytoskeletal network involved in chondrogenic differentiation. When KGN binds to filamin A in the cytosol, the interaction between filamin A and CBFβ is broken, and when the dissociated CBFβ enters the nucleus, CBFβ regulates RUNX1, thereby promoting differentiation of MSCs into chondrocytes. Whether the antifolate can be involved in this mechanism and regulate chondrogenic differentiation-related factors was examined by Western blot analysis and immunofluorescence assay.
Specifically, for Western blot analysis, stem cells (TMSCs) were starved overnight and then treated with each antifolate or KGN in serum-free growth medium. Then, cytosolic and nuclear proteins of the TMSCs were obtained using a nuclear/cytosolic fractionation kit (Cell Biolabs Inc., USA) and total protein was obtained using a cell extraction buffer (Invitrogen, USA) containing a protease inhibitor and phenyl methane sulfonyl fluoride (1.0 mM). Each of the cytosolic and nuclear proteins was loaded, detected with anti-CBFβ primary antibody (Cell Signaling Technology, USA), and then treated with anti-rabbit IgG HRP-conjugated secondary antibody (Cell Signaling Technology, USA) and incubated. Then, the proteins were visualized with an enhanced chemiluminescence substrate (Bio-rad, USA) using an Amersham Imager 600 (GE, UK).

ACAN [6] = experiment: ACAN protein expression by immunofluorescence assay; format: cell-based, Human; settings: 0.1 μM, 14 days 3D culture
Experimental: as §5, §6

SOX 9 [7] = experiment: SOX 9 protein expression by immunofluorescence assay; format: cell-based, Human; settings: 0.1 μM, 14 days 3D culture
Experimental: as §5, §6

ACAN [8] = experiment: ACAN mRNA expression by qPCR in TMSCs in PEG-PA 3D matrix; format: cell-based, Human; settings: 0.1 μM; for ACAN expression level on day 14 compared to control system: day 14, vs control system containing no antifolate; for ACAN mRNA level on day 14 compared to day 0: day 14 vs day 0 (3 hours after start of culture)
From the text: as §1, §2, §3
as §4, with “[…],” for “after 0, 14, and 21 days of 3D culture,”

## Nc1ccc(S(=O)(=O)c2ccc(N)cc2)cc1 [dapsone]
COL II [1]
  COL II expression level compared to control system (day not given): 2.6 fold
[2]
  drug released over 24 hours: 70%
COL II [3]
  mRNA expression level of COL II compared to control: 1.8 fold

## C#CCC(Cc1cnc2nc(N)nc(N)c2n1)c1ccc(C(=O)N[C@@H](CCC(=O)O)C(=O)O)cc1 (stereo partly shown) [pralatrexate]
COL II [1]
  COL II expression, rank among systems: highest
  COL II mRNA level compared to control system, day 14: 3.9 fold
  COL II expression level compared to control system (day not given): 3.5 fold
COL II [1]; day 14
  COL II expression relative to KGN: 2 fold
COL II [1]; day 14 vs day 0 (3 hours after start of culture)
  COL II expression on day 14 compared to day 0: 10 fold
RUNX1
  fluorescence intensity of RUNX1 in the nucleus compared to control: increased
SOX 9 [4]
  SOX 9 expression change: significantly (p<0.01) increased
  SOX 9 mRNA level, rank among systems: highest
  SOX 9 mRNA expression level compared to control system, day 14: 4.2 fold
COL II [5]
  fluorescence intensity of COL II protein: highest
[2]
  drug released over 24 hours: 79%
CBFβ
  nuclear translocation of CBFβ (nuclear versus cytosolic band intensity, FIG. 8B): increased
ACAN [6]
  fluorescence intensity of ACAN protein: highest
SOX 9 [7]
  fluorescence intensity of SOX 9 protein: highest
ACAN [8]
  ACAN expression level on day 14 compared to control system: 4.3 fold
  ACAN mRNA level on day 14 compared to day 0: 12 fold
COL II [3]
  mRNA expression level of COL II compared to control: 2.1 fold

## COc1cc(Cc2cnc(N)nc2N)cc(OC)c1OC [trimethoprim]
COL II [1]
  COL II mRNA level compared to control system, day 14: 2.1 fold
  COL II expression level compared to control system (day not given): 2.1 fold
SOX 9 [4]
  SOX 9 expression change: significantly (p<0.01) increased
  SOX 9 mRNA expression level compared to control system, day 14: 2.9 fold
[2]
  drug released over 24 hours: 79%
ACAN [8]
  ACAN expression level on day 14 compared to control system: 2.2 fold
  ACAN mRNA level on day 14 compared to day 0: 6 fold
COL II [3]
  mRNA expression level of COL II compared to control: 1.5 fold

## O=C(O)c1ccccc1C(=O)Nc1ccc(-c2ccccc2)cc1 [KGN, kartogenin]
COL II [1]
  COL II mRNA level compared to control system, day 14: 1.7 fold
  COL II expression level compared to control system (day not given): 2.1 fold
ACAN [8]
  ACAN expression level on day 14 compared to control system: 1.7 fold
  ACAN mRNA level on day 14 compared to day 0: 5 fold
ACAN [8]; day 20
  ACAN mRNA level relative to control system, day 20: approximately 3.7 times
COL II [3]
  mRNA expression level of COL II compared to control: 1.5 fold
